Assays:
[1] = system: wild type wheat tissue culture seedlings; assay: Establishing resistance screening conditions: herbicide concentration inhibiting growth of wild type wheat seedlings; assay type: in vivo; conditions: minimum herbicide concentration inhibiting plant growth, 1/2 MS medium, after 7 days
Description: (§1) Herbicides listed in Table 5 were selected, and ½ MS medium containing different concentrations of herbicides was prepared for screening wild type rice and wheat tissue culture seedlings. After 7 days, the minimum herbicide concentrations inhibiting plant growth were selected for subsequent screen of transformed plants.

[2] = system: wild type rice tissue culture seedlings; assay: Establishing resistance screening conditions: herbicide concentration inhibiting growth of wild type rice seedlings; assay type: in vivo; conditions: minimum herbicide concentration inhibiting plant growth, 1/2 MS medium, after 7 days
Description: as §1

Row | Compound | Selection concentration for wheat (PPM) [1] [PPM] | Selection concentration for rice (PPM) [2] [PPM]
1 | COC(=O)[C@@H](C)Oc1ccc(Oc2ncc(C(F)(F)F)cc2Cl)cc1 [Haloxyfop-R-methyl] | 0.036 | 0.036
2 | COc1cc(OC)nc(NC(=O)NS(=O)(=O)c2ncccc2C(=O)N(C)C)n1 [Nicosulfuron] | 0.13 | 0.012
3 | CCCCOC(=O)[C@@H](C)Oc1ccc(Oc2ccc(C#N)cc2F)cc1 [cyhalofop-butyl] | – | 5.3
4 | CCOC(=O)[C@@H](C)Oc1ccc(Oc2nc3ccc(Cl)cc3o2)cc1 [fenoxaprop-P-ethyl] | – | 4.5
5 | CCC/C(=N\OCC)C1=C(O)CC(CC(C)SCC)CC1=O (centres unmarked) [sethoxydim] | 0.33 | 0.33

— US12195741B2, “Creation of herbicide resistant gene and use thereof” (INSTITUTE OF GENETICS AND DEVELOPMENTAL BIOLOGY, CHINESE …, priority 2017, dated 2025)
